Source: PMC7954579 (Cancer chemotherapy and pharmacology, 2020)
“And” between values parts separate entries of the source, which are not always exact repeats. Identical values can stand only once.

Columns and labels:
[1] = Plasma pharmacokinetics in patients; type: in vivo, human; conditions: for half-life: t1/2,z
[2] = system: colorectal cancer cell line; experiment: In vitro combination study in a colorectal cancer cell line; type: cell-based; conditions: Supplementary Fig. 1A
[3] = IV, days 1, 4, 8, 11 of 21-day cycle, with onalespib 80 mg/m^2 (DL2)
[4] = system: CDKs 1,2,4,5, and 9; conditions: read-out: IC50 range; cited from earlier work
[5] = twice-weekly schedule, monotherapy; cited from earlier work
[6] = All dose levels, C1D1, AT7519 after onalespib, n = 23, geometric mean
[7] = All dose levels, C1D11, AT7519 after onalespib, n = 15, geometric mean
[8] = DL1, C1D1, AT7519 21 mg/m^2 IV after onalespib 40 mg/m^2, n = 4, geometric mean
[9] = DL1, C1D11, AT7519 21 mg/m^2 IV after onalespib 40 mg/m^2, n = 2, geometric mean
[10] = DL2, C1D1, AT7519 21 mg/m^2 IV after onalespib 80 mg/m^2, n = 15, geometric mean
[11] = DL2, C1D11, AT7519 21 mg/m^2 IV after onalespib 80 mg/m^2, n = 11, geometric mean
[12] = DL3, C1D1, AT7519 27 mg/m^2 IV after onalespib 80 mg/m^2, n = 4, geometric mean
[13] = DL3, C1D11, AT7519 27 mg/m^2 IV after onalespib 80 mg/m^2, n = 2, geometric mean
[14] = human, plasma, iv, DL1, C1D1, AT7519 21 mg/m^2 IV after onalespib 40 mg/m^2, n = 4, geometric mean
[15] = human, plasma, iv, DL1, C1D11, AT7519 21 mg/m^2 IV after onalespib 40 mg/m^2, n = 2, geometric mean
[16] = human, plasma, iv, DL2, C1D1, AT7519 21 mg/m^2 IV after onalespib 80 mg/m^2, n = 15, geometric mean
[17] = human, plasma, iv, DL2, C1D11, AT7519 21 mg/m^2 IV after onalespib 80 mg/m^2, n = 11, geometric mean
[18] = human, plasma, iv, DL3, C1D1, AT7519 27 mg/m^2 IV after onalespib 80 mg/m^2, n = 4, geometric mean
[19] = human, plasma, iv, DL3, C1D11, AT7519 27 mg/m^2 IV after onalespib 80 mg/m^2, n = 2, geometric mean

O=C(NC1CCNCC1)c1n[nH]cc1NC(=O)c1c(Cl)cccc1Cl [AT7519, N-(4-piperidinyl)-4-(2,6-dichlorobenzoylamino)-1H-pyrazole-3-car-boxamide] showed a CL [1, 6] of 9.97 L/h/m^2, a Vz [1, 6] of 144.3 L/m^2 and a CL [1, 7] of 8.93 L/h/m^2. The Vz [1, 7] was 135.9 L/m^2, the CL [1, 8] was 13.6 L/h/m^2 and the Vz [1, 8] was 146.6 L/m^2. The CL [1, 9] was 9.98 L/h/m^2, the Vz [1, 9] was 155.9 L/m^2 and the CL [1, 10] was 9.1 L/h/m^2 and 9.13 L/h/m^2. The Cmax [1, 10] was 459.3 ng/mL, the Vz [1, 10] was 146.3 L/m^2 and the CL [1, 11] was 8.6 L/h/m^2 and 8.58 L/h/m^2. For the same compound, the Cmax [1, 11] was 508.7 ng/mL, the Vz [1, 11] was 132.6 L/m^2 and the CL [1, 12] was 10.1 L/h/m^2. For the same compound, the Vz [1, 12] was 134.7 L/m^2, the CL [1, 13] was 10.0 L/h/m^2 and the Vz [1, 13] was 135.5 L/m^2. The AUC [1, 14] was 1540 ng·h/mL, the AUC [1, 15] was 2100 ng·h/mL and the AUC [1, 16] was 2300 ng·h/mL. For the same compound, the AUC [1, 17] was 2450 ng·h/mL, the AUC [1, 18] was 2660 ng·h/mL and the AUC [1, 19] was 2700 ng·h/mL. The Cmax ([1]; human, plasma, iv, Cmax, DL1, C1D1, AT7519 21 mg/m^2 IV after onalespib 40 mg/m^2, n = 4, geometric mean) was 463 ng/mL, the Cmax ([1]; human, plasma, iv, Cmax, DL1, C1D11, AT7519 21 mg/m^2 IV after onalespib 40 mg/m^2, n = 2, geometric mean) was 486 ng/mL and the Cmax ([1]; human, plasma, iv, Cmax, DL2, C1D1, AT7519 21 mg/m^2 IV after onalespib 80 mg/m^2, n = 15, geometric mean) was 459 ng/mL. It also gave a Cmax ([1]; human, plasma, iv, Cmax, DL2, C1D11, AT7519 21 mg/m^2 IV after onalespib 80 mg/m^2, n = 11, geometric mean) of 509 ng/mL, a Cmax ([1]; human, plasma, iv, Cmax, DL3, C1D1, AT7519 27 mg/m^2 IV after onalespib 80 mg/m^2, n = 4, geometric mean) of 602 ng/mL and a Cmax ([1]; human, plasma, iv, Cmax, DL3, C1D11, AT7519 27 mg/m^2 IV after onalespib 80 mg/m^2, n = 2, geometric mean) of 581 ng/mL. For the same compound, the half-life [1, 14] was 449 min, the half-life [1, 15] was 648 min and the half-life [1, 16] was 666 min. The half-life [1, 17] was 642 min, the half-life [1, 18] was 553 min and the half-life [1, 19] was 563 min. The “Effect on onalespib-induced HSP70 upregulation” value [2] was “dose-dependent inhibition of onalespib-induced HSP70 upregulation”, the “Maximally tolerated dose (MTD) of AT7519 in the combination” value [3] was 21 mg/m^2 and the IC50 [4] was 11 to 220 nM. For the same compound, the “RP2D as individual agent” value [5] was 27 mg/m^2.
